Source: ChEMBL document CHEMBL1137656, “Effects of serum on in vitro susceptibility testing of echinocandins” (Antimicrob Agents Chemother, 2007)
Numbered stars: 1 amine (or outer) side, 2 acyl side, 3 side chain; on linkers, the order of the positions; unused ones are H or OH. Bridge positions count the residues as written; N and C are the ends. Square brackets hold non-standard residues; d marks the D form. Peptide text beside a SMILES is read from it. * marks the point of attachment. pTerphenylCO(4''-OnC5H11) = CCCCCOc1ccc(-c2ccc(-c3ccc(C(=O)*)cc3)cc2)cc1; Orn(4R-OH,5R-OH) = O=C([C@H](C[C@@H](O)[C@@H](O)N[*:3])N[*:1])[*:2]; hTyr(3S-OH,4S-OH) = N[C@H](C(=O)O)[C@H](O)[C@@H](O)c1ccc(O)cc1; Pro(3S-OH,4S-Me) = C[C@H]1CN[C@H](C(=O)O)[C@H]1O; Hyp = O=C(O)[C@@H]1C[C@@H](O)CN1

How the values were obtained:
Assay type in all cases: functional
Candida parapsilosis [1] = experiment: Antifungal activity against Candida parapsilosis isolate 0026-003 after 24 hrs by CLSI M27-A2 broth microdilution method in presence of RPMI 1640 medium; details: Lodderomyces parapsilosis, isolate 0026-003, 24 h
Clavispora lusitaniae [2] = experiment: Antifungal activity against Candida lusitaniae isolate 0015-049 after 24 hrs by CLSI M27-A2 broth microdilution method in presence of RPMI 1640 medium; details: isolate 0015-049, 24 h
Nakaseomyces glabratus [3] = experiment: Antifungal activity against Candida glabrata isolate 0049-038 after 24 hrs by CLSI M27-A2 broth microdilution method in presence of 50% human serum; details: isolate 0049-038, 24 h
Candida parapsilosis [4] = experiment: Antifungal activity against Candida parapsilosis isolate 0036-030 after 24 hrs by CLSI M27-A2 broth microdilution method in presence of RPMI 1640 medium; details: Lodderomyces parapsilosis, isolate 0036-030, 24 h
Aspergillus fumigatus [5] = experiment: Antifungal activity against Aspergillus fumigatus isolate 0002-0016 after 24 hrs by CLSI M38-A broth microdilution method in presence of 50% human serum; details: isolate 0002-0016, 24 h
Candida parapsilosis [6] = experiment: Antifungal activity against Candida parapsilosis ATCC 22019 after 24 hrs by CLSI M27-A2 broth microdilution method in presence of RPMI 1640 medium; details: Lodderomyces parapsilosis, ATCC 22019, 24 h
Candida albicans [7] = experiment: Antifungal activity against Candida albicans isolate 0012-025 after 24 hrs by CLSI M27-A2 broth microdilution method in presence of RPMI 1640 medium; details: isolate 0012-025, 24 h
Aspergillus niger = experiment: Ratio of MIC50 for Aspergillus niger isolate 0001-073 in presence of 50% human serum to MIC50 for Aspergillus niger isolate 0001-073 in presence of RPMI 1640 medium
Nakaseomyces glabratus [8] = experiment: Ratio of MIC50 for Candida glabrata isolate 0022-012 in presence of 50% human serum to MIC50 for Candida glabrata isolate 0022-012 in presence of RPMI 1640 medium
Candida albicans [9] = experiment: Antifungal activity against Candida albicans isolate 0012-025 after 24 hrs by CLSI M27-A2 broth microdilution method in presence of 50% human serum; details: isolate 0012-025, 24 h
Pichia kudriavzevii [10] = experiment: Antifungal activity against Candida krusei isolate 0001-058 after 24 hrs by CLSI M27-A2 broth microdilution method in presence of 50% human serum; details: isolate 0001-058, 24 h
Candida parapsilosis [11] = experiment: Antifungal activity against Candida parapsilosis isolate 0036-030 after 24 hrs by CLSI M27-A2 broth microdilution method in presence of 50% human serum; details: Lodderomyces parapsilosis, isolate 0036-030, 24 h
Candida parapsilosis [12] = experiment: Ratio of MIC50 for Candida parapsilosis isolate 0014-074 in presence of 50% human serum to MIC50 for Candida parapsilosis isolate 0014-074 in presence of RPMI 1640 medium
Clavispora lusitaniae [13] = experiment: Ratio of MIC50 for Candida lusitaniae isolate 0015-049 in presence of 50% human serum to MIC50 for Candida lusitaniae isolate 0015-049 in presence of RPMI 1640 medium
Aspergillus flavus [14] = experiment: Antifungal activity against Aspergillus flavus isolate 0001-033 after 24 hrs by CLSI M38-A broth microdilution method in presence of 50% human serum; details: isolate 0001-033, 24 h
Pichia kudriavzevii [15] = experiment: Ratio of MIC50 for Candida krusei isolate 0001-058 in presence of 50% human serum to MIC50 for Candida krusei isolate 0001-058 in presence of RPMI 1640 medium
Aspergillus flavus [16] = experiment: Antifungal activity against Aspergillus flavus isolate 0001-033 after 24 hrs by CLSI M38-A broth microdilution method in presence of RPMI 1640 medium; details: isolate 0001-033, 24 h
Nakaseomyces glabratus [17] = experiment: Antifungal activity against Candida glabrata isolate 0022-012 after 24 hrs by CLSI M27-A2 broth microdilution method in presence of RPMI 1640 medium; details: isolate 0022-012, 24 h
Pichia kudriavzevii [18] = experiment: Antifungal activity against Candida krusei isolate 0013-054 after 24 hrs by CLSI M27-A2 broth microdilution method in presence of RPMI 1640 medium; details: isolate 0013-054, 24 h
Clavispora lusitaniae [19] = experiment: Antifungal activity against Candida lusitaniae isolate 0013-002 after 24 hrs by CLSI M27-A2 broth microdilution method in presence of 50% human serum; details: isolate 0013-002, 24 h
Aspergillus flavus [20] = experiment: Antifungal activity against Aspergillus flavus isolate 0001-061 after 24 hrs by CLSI M38-A broth microdilution method in presence of 50% human serum; details: isolate 0001-061, 24 h
Candida tropicalis [21] = experiment: Antifungal activity against Candida tropicalis isolate 0050-028 after 24 hrs by CLSI M27-A2 broth microdilution method in presence of 50% human serum; details: isolate 0050-028, 24 h
Aspergillus fumigatus [22] = experiment: Ratio of MIC50 for Aspergillus fumigatus isolate […] in presence of 50% human serum to MIC50 for Aspergillus fumigatus isolate 0020-018 in presence of RPMI 1640 medium
Aspergillus fumigatus [23] = experiment: Antifungal activity against Aspergillus fumigatus isolate 0002-0016 after 24 hrs by CLSI M38-A broth microdilution method in presence of RPMI 1640 medium; details: isolate 0002-0016, 24 h
Pichia kudriavzevii [24] = experiment: Ratio of MIC50 for Candida krusei isolate 0013-054 in presence of 50% human serum to MIC50 for Candida krusei isolate 0013-054 in presence of RPMI 1640 medium
Candida parapsilosis [25] = experiment: Antifungal activity against Candida parapsilosis isolate 0014-074 after 24 hrs by CLSI M27-A2 broth microdilution method in presence of RPMI 1640 medium; details: Lodderomyces parapsilosis, isolate 0014-074, 24 h
Candida tropicalis [26] = experiment: Antifungal activity against Candida tropicalis isolate 0022-021 after 24 hrs by CLSI M27-A2 broth microdilution method in presence of 50% human serum; details: isolate 0022-021, 24 h
Aspergillus flavus [27] = experiment: Ratio of MIC50 for Aspergillus flavus isolate 0001-061 in presence of 50% human serum to MIC50 for Aspergillus flavus isolate 0001-061 in presence of RPMI 1640 medium
Candida parapsilosis [28] = experiment: Ratio of MIC50 for Candida parapsilosis ATCC 22019 in presence of 50% human serum to MIC50 for Candida parapsilosis ATCC 22019 in presence of RPMI 1640 medium
Candida tropicalis [29] = experiment: Antifungal activity against Candida tropicalis isolate 0050-028 after 24 hrs by CLSI M27-A2 broth microdilution method in presence of RPMI 1640 medium; details: isolate 0050-028, 24 h
Clavispora lusitaniae [30] = experiment: Antifungal activity against Candida lusitaniae isolate 0015-049 after 24 hrs by CLSI M27-A2 broth microdilution method in presence of 50% human serum
Candida albicans [31] = experiment: Antifungal activity against Candida albicans isolate 0021-076 after 24 hrs by CLSI M27-A2 broth microdilution method in presence of RPMI 1640 medium; details: isolate 0021-076, 24 h
Aspergillus fumigatus [32] = experiment: Antifungal activity against Aspergillus fumigatus isolate 0002-020 after 24 hrs by CLSI M38-A broth microdilution method in presence of RPMI 1640 medium; details: isolate 0002-020, 24 h

| SMILES | MIC50 (Candida parapsilosis [1]) | MIC50 (Clavispora lusitaniae [2]) | MIC50 (Nakaseomyces glabratus [3]) | MIC50 (Candida parapsilosis [4]) | MIC50 (Aspergillus fumigatus [5]) | MIC50 (Candida parapsilosis [6]) | MIC50 (Candida albicans [7]) | Ratio (Aspergillus niger) | Ratio (Nakaseomyces glabratus [8]) | MIC50 (Candida albicans [9]) | MIC50 (Pichia kudriavzevii [10]) | MIC50 (Candida parapsilosis [11]) | Ratio (Candida parapsilosis [12]) | Ratio (Clavispora lusitaniae [13]) | MIC50 (Aspergillus flavus [14]) | Ratio (Pichia kudriavzevii [15]) | MIC50 (Aspergillus flavus [16]) | MIC50 (Nakaseomyces glabratus [17]) | MIC50 (Pichia kudriavzevii [18]) | MIC50 (Clavispora lusitaniae [19]) | further results |
| --- | --- | --- | --- | --- | --- | --- | --- | --- | --- | --- | --- | --- | --- | --- | --- | --- | --- | --- | --- | --- | --- |
| CCCCCOc1ccc(-c2ccc(-c3ccc(C(=O)N[C@H]4C[C@@H](O)[C@@H](O)NC(=O)[C@@H]5[C@@H](O)[C@@H](C)CN5C(=O)[C@H]([C@@H](C)O)NC(=O)[C@H]([C@H](O)[C@@H](O)c5ccc(O)cc5)NC(=O)[C@@H]5C[C@@H](O)CN5C(=O)[C@H]([C@@H](C)O)NC4=O)cc3)cc2)cc1 [ANIDULAFUNGIN] ({pTerphenylCO(4''-OnC5H11)}-[Orn(4R-OH,5R-OH)]T[Hyp][hTyr(3S-OH,4S-OH)]T[Pro(3S-OH,4S-Me)]; lactam 1-C) | 2 µg/mL | 0.125 µg/mL | 2 µg/mL | 1 µg/mL | 128 µg/mL | 0.5 µg/mL | 0.0156 µg/mL | 512 | 32 | 0.25 µg/mL | 1 µg/mL | 128 µg/mL | 64 | 8 | 128 µg/mL | 32 | 4 µg/mL | 0.0313 µg/mL | 0.125 µg/mL | 1 µg/mL | MIC50 (Aspergillus flavus [20]): 128 µg/mL; MIC50 (Candida tropicalis [21]): 128 µg/mL; Ratio (Aspergillus fumigatus [22]): 256; MIC50 (Aspergillus fumigatus [23]): 2 µg/mL; Ratio (Pichia kudriavzevii [24]): 32; MIC50 (Candida parapsilosis [25]): 0.004 µg/mL; MIC50 (Candida tropicalis [26]): 2 µg/mL; Ratio (Aspergillus flavus [27]): 32; Ratio (Candida parapsilosis [28]): 128; MIC50 (Candida tropicalis [29]): 1 µg/mL; MIC50 (Clavispora lusitaniae [30]): 1 µg/mL; MIC50 (Candida albicans [31]): 0.5 µg/mL; MIC50 (Aspergillus fumigatus [32]): 0.008 µg/mL |
| CC[C@H](C)C[C@H](C)CCCCCCCCC(=O)N[C@H]1C[C@@H](O)[C@@H](NCCN)NC(=O)[C@@H]2[C@@H](O)CCN2C(=O)[C@H]([C@H](O)CCN)NC(=O)[C@H]([C@H](O)[C@@H](O)c2ccc(O)cc2)NC(=O)[C@@H]2C[C@@H](O)CN2C(=O)[C@H]([C@@H](C)O)NC1=O [CASPOFUNGIN] | 1 µg/mL | 0.5 µg/mL | 0.5 µg/mL | 1 µg/mL | 128 µg/mL | 0.5 µg/mL | 0.25 µg/mL | 512 | 1 | 0.25 µg/mL | 0.5 µg/mL | 8 µg/mL | 2 | 2 | 128 µg/mL | 1 | 32 µg/mL | 0.5 µg/mL | 0.5 µg/mL | 0.25 µg/mL | MIC50 (Aspergillus flavus [20]): 128 µg/mL; MIC50 (Candida tropicalis [21]): 2 µg/mL; Ratio (Aspergillus fumigatus [22]): 8; MIC50 (Aspergillus fumigatus [23]): 8 µg/mL; Ratio (Pichia kudriavzevii [24]): 4; MIC50 (Candida parapsilosis [25]): 0.25 µg/mL; MIC50 (Candida tropicalis [26]): 0.5 µg/mL; Ratio (Aspergillus flavus [27]): 1; Ratio (Candida parapsilosis [28]): 16; MIC50 (Candida tropicalis [29]): 0.5 µg/mL; MIC50 (Clavispora lusitaniae [30]): 1 µg/mL; MIC50 (Candida albicans [31]): 0.5 µg/mL; MIC50 (Aspergillus fumigatus [32]): 0.5 µg/mL |
